Literature values in paper PMC10714399, “Open Source Antibiotics: Simple Diarylimidazoles Are Potent against Methicillin-Resistant Staphylococcus aureus” (ACS Infectious Diseases, 2023).

What was measured:
p38 kinase = system: p38 kinase; set-up: method as in earlier work; settings: cited from earlier work
[1] = target: transforming growth factor β1 (TGF-β1) type I receptor (ALK5); set-up: method as in earlier work; settings: read-out: IC50 against ALK5; cited from earlier work
[2] = system: TGF-β1-induced fibronectin mRNA formation; set-up: method as in earlier work; settings: cited from earlier work
[3] = set-up: method as in earlier work; settings: 48 h XTT assay; read-out: CC50, cytotoxicity; cited from earlier work

NC(=O)c1ccc(-c2nc(-c3ccc4c(c3)OCO4)c(-c3ccccn3)[nH]2)cc1 [SB-431542]
inhibition of p38 kinase (p38 kinase): no inhibition
IC50 [1]: 94 nM
IC50 [2]: 50 nM
CC50 [3]: > 30000 nM
